Assay results published in patent US20220387457A1 (Qlaris Bio, Inc., priority 2020, published 2022).
“Also recorded” adds a separate entry of the source. Where two headings read alike, the source gives them in different places.

Experiments:
[1] = Plasma pharmacokinetics of CKLP1 and levcromakalim after topical dosing in hound dogs; type: in vivo, hound dog; details: for AUC(0-t) / Cmax / Tmax / half-life: plasma
Experimental: To assess the pharmacokinetic parameters, hound dogs (n=3) were treated with 50 μL topical ocular administration of 10 mM CKLP1 or vehicle (PBS) (n=2) in both eyes, once daily for eight days. Blood (approximately 3 mL) was collected in heparin blood collection tubes at eight different time points (5 minutes, 15 minutes, 30 minutes, 60 minutes, 2 hours, 4 hours, 8 hours and 24 hours) following treatment on days 1, 4 and 8. Plasma was separated from the blood by centrifugation at 2000 rpm for 5 minutes.
(§1) Immediately prior to analysis, tissues were thawed and their weight was measured. PBS was added at double the tissue volume homogenized in a rotor stator homogenizer for 30 seconds. […] Detection was accomplished using positive electrospray ionization with multiple-reaction monitoring (MRM). […] Data were acquired and analyzed using Waters MassLynx v4.1 software.

[2] = Concentration of CKLP1 and levcromakalim in ocular and systemic tissues of hound dogs; type: in vivo, hound dog; details: for concentration at 23 h: hound, dog
Experimental: After blood collection for pharmacokinetic studies, bilateral ocular treatment with CKLP1 (10 mM) continued in the hound dogs for 4-5 additional days.
For ocular tissue collection, eyes were enucleated and aqueous humor, vitreous humor, trabecular meshwork, optic nerve, ciliary body, iris, retina and cornea were isolated and stored at −80° C. While collecting tissues during necropsy, portions of heart, kidney, lung, brain, liver and skeletal muscle were immediately frozen for pharmacodynamics analysis, while the remaining tissue samples were immediately fixed in 10% neutral buffered formalin.
as §1

[3] = molecular target: T1, human Kir6.2/SUR2B KATP channel (Homo sapiens, UniProt O60706); test: FLIPR membrane potential assay in HEK-Kir6.2/SUR2B cells; type: cell-based
T1 construct: expressed in transfected cells
T1 sequence (O60706 1-1549 isoform O60706-2): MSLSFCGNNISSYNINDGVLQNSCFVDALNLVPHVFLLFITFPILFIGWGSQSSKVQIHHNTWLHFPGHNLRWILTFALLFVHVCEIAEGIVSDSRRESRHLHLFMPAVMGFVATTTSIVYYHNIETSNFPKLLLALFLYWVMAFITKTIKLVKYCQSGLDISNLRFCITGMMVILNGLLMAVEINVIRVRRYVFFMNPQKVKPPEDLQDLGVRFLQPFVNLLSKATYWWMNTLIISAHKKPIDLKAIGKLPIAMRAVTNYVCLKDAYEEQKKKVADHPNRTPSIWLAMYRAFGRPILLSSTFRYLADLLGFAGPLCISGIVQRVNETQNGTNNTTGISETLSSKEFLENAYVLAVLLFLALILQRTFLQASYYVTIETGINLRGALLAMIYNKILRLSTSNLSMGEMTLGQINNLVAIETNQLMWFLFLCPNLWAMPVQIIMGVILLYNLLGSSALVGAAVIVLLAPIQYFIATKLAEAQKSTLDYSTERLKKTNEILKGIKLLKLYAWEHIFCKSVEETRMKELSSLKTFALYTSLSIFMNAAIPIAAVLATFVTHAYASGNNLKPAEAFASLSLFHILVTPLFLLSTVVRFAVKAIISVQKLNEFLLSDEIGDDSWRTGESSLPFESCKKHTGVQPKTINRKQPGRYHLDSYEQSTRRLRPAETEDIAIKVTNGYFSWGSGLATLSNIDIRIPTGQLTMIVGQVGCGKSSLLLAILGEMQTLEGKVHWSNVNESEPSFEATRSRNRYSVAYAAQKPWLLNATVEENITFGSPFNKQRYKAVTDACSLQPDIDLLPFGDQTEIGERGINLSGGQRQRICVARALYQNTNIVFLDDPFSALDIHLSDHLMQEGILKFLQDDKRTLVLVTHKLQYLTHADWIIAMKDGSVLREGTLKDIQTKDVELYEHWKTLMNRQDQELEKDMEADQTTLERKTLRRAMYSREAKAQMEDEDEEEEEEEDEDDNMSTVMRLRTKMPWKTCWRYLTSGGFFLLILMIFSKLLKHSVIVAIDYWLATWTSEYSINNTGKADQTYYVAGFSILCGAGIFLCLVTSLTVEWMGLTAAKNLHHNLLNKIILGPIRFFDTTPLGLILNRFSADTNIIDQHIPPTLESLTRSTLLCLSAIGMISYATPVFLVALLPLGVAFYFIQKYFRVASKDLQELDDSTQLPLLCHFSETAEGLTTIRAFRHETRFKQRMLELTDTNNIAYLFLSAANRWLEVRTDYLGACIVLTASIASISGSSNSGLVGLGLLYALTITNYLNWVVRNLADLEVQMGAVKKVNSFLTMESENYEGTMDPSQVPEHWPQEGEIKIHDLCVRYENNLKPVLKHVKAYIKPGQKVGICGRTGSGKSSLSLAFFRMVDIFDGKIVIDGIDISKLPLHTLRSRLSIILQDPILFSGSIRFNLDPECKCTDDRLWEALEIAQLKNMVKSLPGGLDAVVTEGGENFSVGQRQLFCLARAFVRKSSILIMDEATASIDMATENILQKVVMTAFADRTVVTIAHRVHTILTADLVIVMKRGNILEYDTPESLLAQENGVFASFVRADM
T1 sequence (Q14654 whole entry partner): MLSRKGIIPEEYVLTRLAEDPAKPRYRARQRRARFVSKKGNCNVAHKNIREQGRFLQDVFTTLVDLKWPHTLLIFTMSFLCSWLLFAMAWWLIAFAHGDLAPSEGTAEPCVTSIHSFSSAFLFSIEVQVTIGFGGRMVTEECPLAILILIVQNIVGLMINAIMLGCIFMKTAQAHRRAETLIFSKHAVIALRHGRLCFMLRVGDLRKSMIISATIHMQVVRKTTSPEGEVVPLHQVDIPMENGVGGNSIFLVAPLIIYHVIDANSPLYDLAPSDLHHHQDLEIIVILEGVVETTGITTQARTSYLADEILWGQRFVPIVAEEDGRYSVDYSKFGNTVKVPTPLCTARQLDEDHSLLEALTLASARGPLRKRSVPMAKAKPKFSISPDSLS
Experimental: The ability of CKLP1 and the active moiety of CKLP1, leveromakalim, to pharmacologically modulate the function of the human ATP-sensitive potassium channel comprised of Kir6.2 (encoded by the human gene KCNJ11) coupled to the sulfonylurea receptor SUR2B (encoded by the human gene ABCC9) was studied.
Compounds were dissolved up to 10 mM stock solution in DMSO. Ten-point concentration response curves were generated at 100× concentration in 100% DMSO. Compound source plates were made by serially diluting 10 mM compound stocks in DMSO to generate a progressive semilog dilution schema. Dose response stock plate (10 μL) were then transferred into assay plates containing 90 μL of assay buffer, generating 10× working concentrations. Final assay test concentration ranges of 100 μM to 0.003 μM with a final DMSO concentration of 1.0%.
Human embryonic kidney (HEK) cells stably expressing human Kir6.2/SUR2B KATP channel subunits were plated onto 96 well, black poly-d-lysine (PDL)-coated microplates and maintained in growth media the day prior to use for experiments. Media was removed from the plates and 90 μL of 1× stock of the membrane potential sensitive fluorescent dye FMP-Blue resuspended in assay buffer (EBSS—in mM: NaCl 145, KCl 2, Glucose 5, CaCl2) 1.8, MgCl2 0.8, HEPES 10, pH 7.4 with NaOH, 290-300 mOSm) was added to the cells. Cells were incubated at room temperature, protected from light, for 45-60 minutes. After the incubation period, cell, test compound and glibenclamide plates were loaded onto the fluorescence plate reader (FLIPR-TETRA™) and the scanning initiated. The FLIPR measured a 10 second baseline and then added 10 μL of 10× the final desired concentration of test agent. Changes in fluorescence were monitored for an additional 5 minutes. After the 5-minute compound incubation, 10 μL of the receptor inhibitor glibenclamide was added to the cell plate (10 uM final glibenclamide concentration). Changes in fluorescence was then monitored for an additional 5 minutes.
Compound modulation of Kir6.2/SUR2B KATP channel mediated changes in cellular membrane potential was determined as follows. After the administration of compound, FMP fluorescence was monitored for a 5-minute period. The following parameters were recorded and exported from the FLIPR: the average relative fluorescence response (RFU) of 5 images taken at the 5-minute point in the assay with the average background EBSS buffer response subtracted. […] Test agent effect was calculated as % activation using the following formula: […]
Curve fits were performed in GraphPad Prism graphing software using a 4-parameter, variable slope fit equation.

5′-nucleotidase = test: Conversion of CKLP1 by 5′-nucleotidase, LC/MS-MS, pH 7.4; type: biochemical, human; details: up to 2 hours
Experimental: Conversion of CKLP1 (200 μM-5.0 mM) was examined by LC/MS-MS following incubation at pH 7.4 with either human alkaline phosphatase (ALP), acid phosphatase, or 5′-nucleotidase (2.01 nM-1.0 μM) for up to 2 hours.

[4] = CKLP1, topical 10 mM CKLP1 once daily, Day 1
[5] = CKLP1, topical 10 mM CKLP1 once daily, Day 4
[6] = CKLP1, topical 10 mM CKLP1 once daily, Day 8
[7] = hound, dog, topical or ocular, 10 mM CKLP1, 50 µL in each of both eyes, CKLP1, topical 10 mM CKLP1 once daily, Day 1
[8] = hound, dog, topical or ocular, 10 mM CKLP1, 50 µL in each of both eyes, CKLP1, topical 10 mM CKLP1 once daily, Day 4
[9] = hound, dog, topical or ocular, 10 mM CKLP1, 50 µL in each of both eyes, CKLP1, topical 10 mM CKLP1 once daily, Day 8

## CC1(C)Oc2ccc(C#N)cc2[C@@H](N2CCCC2=O)[C@@H]1OP(=O)(O)O [CKLP1]
[1]; [4]
  Clast: 2.6 ng/mL
  Tlast: 480 min
[1]; [5]
  Clast: 1.4 ng/mL
  Tlast: 1440 min
[1]; [6]
  Clast: 0.3 ng/mL
  Tlast: 1450 min
[1]; [7]
  AUC(0-t): 72.9 ng·h/mL
  Cmax: 10.3 ng/mL
[1]; hound, dog, topical or ocular, 10 mM CKLP1, 50 µL in each of both eyes, CKLP1, topical 10 mM CKLP1 once daily, Day 1, read-out: Tmax (converted)
  Tmax: 1 h
[1]; [8]
  AUC(0-t): 103 ng·h/mL
  Cmax: 12.2 ng/mL
[1]; hound, dog, topical or ocular, 10 mM CKLP1, 50 µL in each of both eyes, CKLP1, topical 10 mM CKLP1 once daily, Day 4, read-out: Tmax (converted)
  Tmax: 2 h
[1]; [9]
  AUC(0-t): 86.7 ng·h/mL
  Cmax: 8.9 ng/mL
[1]; hound, dog, topical or ocular, 10 mM CKLP1, 50 µL in each of both eyes, CKLP1, topical 10 mM CKLP1 once daily, Day 8, read-out: Tmax (converted)
  Tmax: 1 h
[1]; hound, dog, topical or ocular, 10 mM, CKLP1, topical 10 mM CKLP1 once daily, Day 1
  half-life: 3.01 h
[1]; hound, dog, topical or ocular, 10 mM, CKLP1, topical 10 mM CKLP1 once daily, Day 4
  half-life: 7.53 h
[1]; hound, dog, topical or ocular, 10 mM, CKLP1, topical 10 mM CKLP1 once daily, Day 8
  half-life: 4.23 h
[1]; hound, dog, topical or ocular, 10 mM, topical 10 mM CKLP1, read-out: time of maximum concentration (Tmax) of CKLP1
  Tmax: ≤ 1 h
[1]; hound, dog, topical or ocular, CKLP1 in plasma, topical 10 mM CKLP1
  AUC: 87.7 ng·h/mL
[1]; topical 10 mM CKLP1
  AUC of CKLP1 relative to levcromakalim: 22.4 fold
[1]; topical 10 mM CKLP1, mean of days 1, 4, 8
  Maximum concentration of CKLP1 in plasma: 10.5 ± 1.7 ng/mL
[1]; topical CKLP1
  conversion of CKLP1 to levcromakalim, estimate from blood concentrations: 10%
[2]; 23 hours after last dose, topical 10 mM CKLP1 12-13 days
  concentration in lung: undetected
[2]; aqueous humor, 23 hours after last dose, topical 10 mM CKLP1 12-13 days, two animals, read-out: concentration in aqueous humor
  concentration at 23 h: 10.2 ± 14.4 ng/g
[2]; ciliary body, 23 hours after last dose, topical 10 mM CKLP1 12-13 days, two animals, read-out: concentration in ciliary body
  concentration at 23 h: 10.3 ± 8.1 ng/g
[2]; cornea, 23 hours after last dose, topical 10 mM CKLP1 12-13 days, two animals, read-out: concentration in cornea
  concentration at 23 h: 31.3 ± 10.8 ng/g
[2]; heart, 23 hours after last dose, topical 10 mM CKLP1 12-13 days, read-out: concentration in heart
  concentration at 23 h: 3.7 ± 0.5 ng/g
[2]; iris, 23 hours after last dose, topical 10 mM CKLP1 12-13 days, two animals, read-out: concentration in iris
  concentration at 23 h: 4.8 ± 1.1 ng/g
[2]; kidney, 23 hours after last dose, topical 10 mM CKLP1 12-13 days, read-out: concentration in kidney
  concentration at 23 h: 2.7 ± 2.9 ng/g
[2]; optic nerve, 23 hours after last dose, topical 10 mM CKLP1 once daily 12-13 days, two animals, read-out: concentration in optic nerve
  concentration at 23 h: 63.8 ± 63.1 ng/g
[2]; retina, 23 hours after last dose, topical 10 mM CKLP1 12-13 days, two animals, read-out: concentration in retina
  concentration at 23 h: 6.2 ± 3.8 ng/g
[2]; trabecular meshwork, 23 hours after last dose, topical 10 mM CKLP1 12-13 days, two animals, read-out: concentration in trabecular meshwork
  concentration at 23 h: 170 ± 21.6 ng/g
[2]; vitreous humor, 23 hours after last dose, topical 10 mM CKLP1 12-13 days, two animals, read-out: concentration in vitreous humor
  concentration at 23 h: 24.4 ± 2.4 ng/g
[2]; topical 10 mM CKLP1 12-13 days
  concentration in urine: 88.0 ± 134.9 ng/mL
[3]; ability to modulate KATP channel, HEK-Kir6.2/SUR2B cells, normalized to 100 uM pinacidil, read-out: EC50 (μM) (mean ± SEM)
  EC50: > 100 µM
[3]; read-out: maximal response, % activation
  Emax at 100 µM: 9.4%
[3]; up to 100 μM
  hyperpolarization / activation of Kir6.2/SUR2B KATP channels: did not result in any significant hyperpolarization; also recorded: failed to produce any significant activation
5′-nucleotidase
  conversion of CKLP1 to levcromakalim: not
